Patent EP4692072A1, “PHOTOCHROMIC COMPOUND, PROPARGYL ALCOHOL COMPOUND, CURABLE COMPOSITION, OPTICAL ARTICLE, LENS, AND SPECTACLES” (TOKUYAMA CORPORATION, priority 2023, dated 2024)

Columns and labels:
[1] = Accelerated deterioration (xenon weather meter X25, 120 hours) of photochromic cured product prepared by kneading method; format: physicochemical; conditions: 1 mm cured product, 0.106 mmol per 100 g monomer, A120/A0×100 after 120 hours xenon weather meter
Description: • [1] Maximum Absorption Wavelength (λmax): The maximum absorption wavelength after color development, measured using a spectrophotometer (instantaneous multichannel photodetector MCPD3000) manufactured by Otsuka Electronics Co., Ltd. was used as an indicator for the color tone during the color development. • [2] 23°C Color Optical Density (A23): A difference between an absorbancy measured after light irradiation at 23°C for 300 seconds {ε(300)} and an absorbancy without light irradiation ε(0) at the maximum absorption wavelength was used as an indicator for the color optical density. […] 23°C color fading half-life [τ1/2 (sec.)]: A time required for the absorbancy of the sample at the maximum absorption wavelength to decrease to 1/2 of {ε(300)-ε(0)} when the light irradiation was terminated after the light irradiation at 23°C for 300 seconds, was used as an indicator for the color fading speed. The shorter this time, the higher the color fading speed. • [4] Residual rate (A120/A0×100): The obtained photochromic plastic lens was subjected to accelerated deterioration using a xenon weather meter X25 manufactured by Suga Test Instruments Co., Ltd. for 120 hours. Subsequently, the color optical density was evaluated before and after the test, then a color optical density before the test (A0) and a color optical density after the test (A120) were measured, and a ratio (A120/A0) was defined as a residual rate. The residual rate was used as an indicator for a color developing durability. The higher the residual rate, the higher the color developing durability. The results of Examples 26, 50, and Comparative Examples 1 to 8 are summarized in Table 1, and the results of Examples 27 to 49 are summarized in Tables 2 and 3.
First, the photochromic compound obtained in Example 1, additives, and a polymerizable compound were mixed to obtain a curable composition.
As the polymerizable compound, a combination of the following polymerizable monomers was used. • 1,3-bis(isocyanatomethyl)cyclohexane: 36.7 parts by mass Pentaerythritol tetrakis(3-mercaptopropionate): 39.4 parts by mass • Polyoxyethylene polyoxypropylene lauryl ether (Wonder Surf 140 manufactured by Aoki Oil Industrial Co., Ltd.): 17.4 parts by mass • 1-decanethiol: 2.8 parts by mass • RX-1 adjusted according to the method described in Patent Document 13: 3.8 parts by mass
Note that the photochromic compound was added to the curable composition so that the amount of the photochromic compound was 0.106 mmol based on 100 g of the total amount of the polymerizable monomer. The following additives were used: Dimethyltin dichloride • : 0.05 part by mass • Irganox 245: 0.1 part by mass • 2-ethylhexyl 4-methoxycinnamate: 0.6 part by mass
The prepared curable composition was thoroughly defoamed, then injected into a glass mold having a 1 mm gap, and polymerized by cast polymerization. The polymerization was carried out in an air furnace while gradually raising the temperature from 27°C to 120°C over 18 hours. After the polymerization, the cured product was removed from the glass mold to obtain a photochromic cured product having a thickness of 1 mm. The obtained photochromic cured product was evaluated in the same manner as in Example 26.
(Examples 85 to 99, and Comparative Example 14 to 18) Photochromic cured products were prepared using photochromic compounds presented in Tables 6 and 7 in the same manner as in Example 84. The results of Examples 84 and 85 and Comparative Examples 14 to 18 are summarized in Table 6, and the results of Examples 86 to 99 are summarized in Table 7.

[2] = Photochromic properties of photochromic laminate (plastic lens) prepared by coating method; format: physicochemical; conditions: 40 µm photochromic layer on thiourethane lens, 0.25 mmol compound per 100 g monomers, after color development
Summary of the method: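 Compound at 0.25 mmol per 100 g methacrylate monomers in a 40 µm spin-coated layer on a primed 2 mm thiourethane lens, photocured under N2, then heated 110°C 1 h. Spectrophotometer read-out after 300 s irradiation at 23°C: λmax, colour density, fading half-life; residual rate after 120 h xenon ageing.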

| Residual rate [1] | Maximum absorption wavelength [2] | Maximum absorption wavelength ([2]; listed as Formula (86)) | Maximum absorption wavelength ([2]; listed as Formula (88)) | Maximum absorption wavelength ([2]; listed as Formula (89)) | Maximum absorption wavelength ([2]; listed as Formula (110)) | Maximum absorption wavelength ([2]; listed as Formula (124)) | Compound |
| --- | --- | --- | --- | --- | --- | --- | --- |
| 65% | 504 nm | 599 nm | – | – | – | – | CCCC1(CCC)c2ccccc2-c2c1c1c(c3cc(OC)c(-c4ccc(N(C)c5ccccc5)cc4)cc23)OC(c2ccc(C)cc2)(c2ccc(N(C)c3ccccc3)cc2)C=C1 (stereo not drawn) [Example 24] |
| 68% | 505 nm | – | 605 nm | – | – | – | CCN(c1ccc(OC)cc1)c1ccc(C2(c3ccc(OC)cc3)C=Cc3c4c(c5cc(-c6ccc(N7CCOCC7)cc6)c(OC)cc5c3O2)-c2ccccc2C4(C)C)cc1 (stereo not drawn) [Example 25] |
| 68% | 482 nm | – | – | 603 nm | – | – | COCCOCCOCCOCCC1(CCOCCOCCOCCOC)c2cc(C(F)(F)F)ccc2-c2c1c1c(c3cc(OC)c(OC)cc23)OC(c2ccc(OC)cc2)(c2ccc(N(C)c3ccccc3)cc2)C=C1 (stereo not drawn) [Example 51] |
| 72% | 493 nm | – | – | – | 615 nm | – | CCCC1(CCC)c2cc(OC(F)(F)F)ccc2-c2c1c1c(c3cc(OC)c(Sc4c(C)cccc4C)cc23)OC(c2ccc(N(C)c3ccccc3)cc2)(c2ccc(OC)c(OC)c2)C=C1 (stereo not drawn) [Example 57] |
| 67% | 477 nm | – | – | – | – | 587 nm | COCCCCC1(CCCCOC)c2ccccc2-c2c1c1c(c3cc(-c4ccc(OC)cc4OC)c(OC)cc23)OC(c2ccc(N(C)c3ccccc3)cc2)(c2ccc3c(c2)CCO3)C=C1 (stereo not drawn) [Example 62] |
